The source of these data is patent US8475804B2 (priority 2009, dated 2013).

pIC50: −log10 of the molar value. Counter-ions that a name gives are not always drawn. Like-named read-outs stand apart in the source and are kept apart here. Non-standard residues stand in square brackets, D forms with d. Residues, ends and D or L forms follow the SMILES beside them. *: point of attachment. Nva = CCC[C@H](N)C(=O)O; Cbz = O=C(OCc1ccccc1)*

In this assay the test system is Ebola virus. Put plainly: microbe, parasite or virus in culture. In kind it is cell-based, Ebolavirus (EBOV). Conditions: for Emax: read-out: Max Effect.

As for `Clc1ccc(C(Cn2ccnc2)OCc2ccsc2Cl)c(Cl)c1` (stereo not shown) [Tioconazole], for the setting “Zaire ebolavirus, Vero”, the pIC50 was 5.07 and the Emax was determined as 72.9%.

On to `CN1CCCN(C(c2ccccc2)c2ccc(Cl)cc2)CC1` (stereo not shown) [Homochlorcyclizine dihydrochloride], for which, for the setting “Zaire ebolavirus, Vero”, the pIC50 is 5.06 and the Emax turned out to be 50.8%.

As for `[O-][n+]1ccccc1[S-].[O-][n+]1ccccc1[S-].[Zn+2]` [Pyrithione Zinc], the “Max Effect” value amounted to 0.767.

Turning to `C[C@]12CC[C@H]3C(=CCc4cc(O)ccc43)[C@@H]1CCC2=O` [Equilin], the Emax (Zaire ebolavirus, Vero) came to 42.4%.

For `Oc1c2ccccc2c2c3c(cccc13)N=N2` [SP 600125], the Emax (Zaire ebolavirus, Vero) is 36.5%.

As to `CCC(=O)O[C@](Cc1ccccc1)(c1ccccc1)[C@H](C)CN(C)C` [Propoxyphene Hydrochloride], the Emax (Zaire ebolavirus, Vero) was found to be 42.2%.

Regarding Acetophenazine Maleate, the “Max Effect” value was determined as 0.478.

For the compound `Fc1ccc(C(c2ccc(F)cc2)N2CCN(C/C=C/c3ccccc3)CC2)cc1` [Flunarizine Hydrochloride], the Emax (Zaire ebolavirus, Vero) is 40.2%.

As to `COc1ccc(C[C@H]2NC[C@H](O)[C@H]2OC(C)=O)cc1` [Anisomycin], the “Max Effect” value was 0.900. Where the note is “read-out: IC50”, the negative-log IC50 (pIC50) is above 5.80.

`Fc1ccc(C(OCCN2CCN(CCCc3ccccc3)CC2)c2ccc(F)cc2)cc1` [Vanoxerine]: for the setting “Zaire ebolavirus, Vero”, the pIC50 was 5.24 and the Emax was 56.4%.

With `O=C1Nc2ccc3ncsc3c2/C1=C/c1cnc[nH]1` [PKR inhibitor], the “Max Effect” value amounted to 0.434.

For `CSc1nc2cc(Cl)c(Oc3cccc(Cl)c3Cl)cc2[nH]1` [Triclabendazole], for the setting “Zaire ebolavirus, Vero”, the negative-log IC50 (pIC50) is 5.04 and the Emax was determined as 55.2%.

As for `CC1(C)C[C@@H]1C(=O)N/C(=C\CCCCSC[C@H](N)C(=O)O)C(=O)O` [Cilastatin Sodium], under “Zaire ebolavirus, Vero”, the pIC50 was 5.06 and the Emax amounted to 91.2%.

`Nc1nc(-c2nn(Cc3ccccc3F)c3ncccc23)ncc1C1CC1` [Bay 41-2272]: the “Max Effect” value was 0.900. In addition, the pIC50 (read-out: IC50) is above 6.30.

On to `O=C(c1ccc(OCCN2CCCCC2)cc1)c1c(-c2ccc(O)cc2)sc2cc(O)ccc12` [Raloxifene Hydrochloride], for which, under “Zaire ebolavirus, Vero”, the pIC50 was 5.62 and the Emax came out at 69.1%.

For the compound `CSc1ccc2c(c1)N(CCC1CCCCN1C)c1ccccc1S2.Cl` (stereo not shown) [Thioridazine Hydrochloride], the “Max Effect” value turned out to be 0.915 and the “Max Effect Vero” value came to 0.954. Besides, the pIC50 (read-out: IC50) was 5.37. Under “read-out: IC50 (μM) Vero”, the IC50 came out at 6.2 µM.

As for `CC1=C(/C=C/C(C)=C/C=C/C(C)=C/C(=O)Nc2ccc(O)cc2)C(C)(C)CCC1` [Fenretinide], the Emax (Zaire ebolavirus, Vero) stood at 42.6%.

As to `COc1cc(C[C@H]2C(=O)OC[C@@H]2Cc2ccc(OC)c(OC)c2)ccc1O` [(−)-Arctigenin], the “Max Effect” value is 0.411.

Turning to `C#C[C@]1(O)CC[C@H]2[C@@H]3CCC4=Cc5oncc5C[C@]4(C)[C@H]3CC[C@@]21C` [Danazol], where the note is “Zaire ebolavirus, Vero”, the pIC50 was 4.89 and the Emax worked out at 54.6%.

On to `CN(C)CCCN1c2ccccc2Sc2ccc(C(F)(F)F)cc21` [Triflupromazine Hydrochloride], for which, where the note is “Zaire ebolavirus, Vero”, the negative logarithm of the IC50 (pIC50) is 4.92 and the Emax amounted to 54.1%.

Turning to `C=C(C)[C@H]1Cc2c(ccc3c2O[C@@H]2COc4cc(OC)c(OC)cc4[C@@H]2C3=O)O1` [Rotenone], under “Zaire ebolavirus, Vero”, the pIC50 is above 5.70 and the Emax was 70%.

Turning to `O=C(Nc1cc(C(F)(F)F)cc(C(F)(F)F)c1)c1cc(Cl)ccc1O` [IMD-0354], under “Zaire ebolavirus, Vero”, the pIC50 was 5.51 and the Emax was 66.1%.

Consider `CC(=O)OCC1=C(C(=O)O)N2C(=O)[C@@H](NC(=O)CSc3ccncc3)[C@H]2SC1` [Cephapirin Sodium], for which, under “Zaire ebolavirus, Vero”, the pIC50 is 5.01 and the Emax was determined as 66.2%.

In the case of `N[C@H]1CC[C@@H](c2ccc(Cl)c(Cl)c2)c2ccccc21` [(1S,4S)-Desmethyl Sertraline, Hydrochloride], for the setting “Zaire ebolavirus, Vero”, the pIC50 is 5.89 and the Emax was determined as 68.8%.

Turning to `CN(C)CCOC(C)(c1ccccc1)c1ccccn1` (stereo not shown) [Doxylamine Succinate], under “Zaire ebolavirus, Vero”, the pIC50 was 5.28 and the Emax is 73.1%.

In the case of `CN1CCC(=C2c3ccccc3C=Cc3ccccc32)CC1` [Cyproheptadine Hydrochloride], where the note is “Zaire ebolavirus, Vero”, the Emax was found to be 49.3%.

As to `COC(=O)Nc1nc2ccc(C(=O)c3ccccc3)cc2[nH]1` [Mebendazole], for the setting “Zaire ebolavirus, Vero”, the pIC50 was 6.15 and the Emax amounted to 50%.

For Nonoxynol-9, the “Max Effect” value is reported as 0.535. Besides, under “read-out: IC50”, the pIC50 was 5.06.

With `Cc1cc(C2CCCCC2)n(O)c(=O)c1` [Ciclopirox Olamine], the Emax (Zaire ebolavirus, Vero) amounted to 43.1%.

On to `Cc1cc(/C=C/c2ccc3cc(N(C)C)ccc3[n+]2C)c(C)n1-c1ccccc1` [Pyrvinium Pamoate], for which, where the note is “Zaire ebolavirus, Vero”, the pIC50 is 5.47 and the Emax is 80%.

For `NCCNS(=O)(=O)c1ccc(Cl)c2ccncc12` [CKI7], the “Max Effect” value is reported as 0.565. The pIC50 (read-out: IC50) is 4.97.

Consider `COc1ccc(-c2nc(C(=O)N3CCN(C)CC3)sc2-c2ccc(OC)cc2)cc1` [FR122047], for which the “Max Effect” value is recorded as 0.688. Further, where the note is “read-out: IC50”, the pIC50 is 5.43.

Turning to `O=C(OC[C@H]1O[C@@H](OC(=O)c2cc(O)c(O)c(OC(=O)c3cc(O)c(O)c(O)c3)c2)[C@H](OC(=O)c2cc(O)c(O)c(OC(=O)c3cc(O)c(O)c(O)c3)c2)[C@@H](OC(=O)c2cc(O)c(O)c(OC(=O)c3cc(O)c(O)c(O)c3)c2)[C@@H]1OC(=O)c1cc(O)c(O)c(OC(=O)c2cc(O)c(O)c(O)c2)c1)c1cc(O)c(O)c(OC(=O)c2cc(O)c(O)c(O)c2)c1` [Tannic Acid], for the setting “Zaire ebolavirus, Vero”, the Emax amounted to 54.3%.

In the case of `CC(C)(C)c1ccc(C(O)CCCN2CCC(C(O)(c3ccccc3)c3ccccc3)CC2)cc1` (stereo not shown) [Terfenadine], under “Zaire ebolavirus, Vero”, the pIC50 was 5.21 and the Emax turned out to be 91.4%.

For the compound `CCCCCC(=O)O[C@]1(C(C)=O)CC[C@H]2[C@@H]3CCC4=CC(=O)CC[C@]4(C)[C@H]3CC[C@@]21C` [Hydroxyprogesterone Caproate], where the note is “Zaire ebolavirus, Vero”, the pIC50 is 5.43 and the Emax was determined as 71.9%.

`CN1C[C@H](CNC(=O)OCc2ccccc2)C[C@@H]2c3cccc4c3c(cn4C)C[C@H]21` [Metergoline]: under “Zaire ebolavirus, Vero”, the pIC50 was 5.21 and the Emax was 57.7%.

On to `CN1CCCC(n2nc(Cc3ccc(Cl)cc3)c3ccccc3c2=O)CC1` (stereo not shown) [Azelastine], for which, under “Zaire ebolavirus, Vero”, the pIC50 is 3.92 and the Emax was determined as 64.8%.

As for `CC/C(=C(\c1ccccc1)c1ccc(OCCN(C)C)cc1)c1ccccc1` [Tamoxifen], for the setting “Zaire ebolavirus, Vero”, the Emax is 90%.

In the case of Cetrimide, the “Max Effect” value was found to be 0.692. In addition, the pIC50 (read-out: IC50) is 5.25.

As for `O=C(/C=C/c1ccc(O)c(O)c1)OCCc1ccccc1` [CAPE], the “Max Effect” value turned out to be 0.368.

In the case of `CCC[C@@H](C=O)NC(=O)[C@H](CC(C)C)NC(=O)[C@H](CC(C)C)NC(=O)OCc1ccccc1` [MG115] (Cbz-Leu-Leu-[Nva]-aldehyde), the “Max Effect” value is 0.693. Further, the pIC50 (read-out: IC50) is 6.05.

For `COC(=O)Nc1nc2ccc(Sc3ccccc3)cc2[nH]1` [Fenbendazole], for the setting “Zaire ebolavirus, Vero”, the negative-log IC50 (pIC50) was 5.24 and the Emax turned out to be 50%.

On to `COCc1c(C(C)C)nc(C(C)C)c(/C=C/[C@@H](O)C[C@@H](O)CC(=O)O)c1-c1ccc(F)cc1` [Cerivastatin Sodium], for which, where the note is “Zaire ebolavirus, Vero”, the pIC50 was 7.00 and the Emax was found to be 44.3%.

On to `CO[C@@H]1[C@@H](OC)[C@H](C)[C@@](O)(CC(=O)O)O[C@H]1[C@H](C)[C@H]1O[C@@]2(CC[C@@](C)([C@H]3CC[C@@](C)([C@@H]4O[C@@H]([C@H]5O[C@](C)(O)[C@H](C)C[C@@H]5C)C[C@@H]4O[C@@H]4C[C@H](OC)[C@@H](OC)[C@H](C)O4)O3)O2)C[C@H](O)[C@H]1C` [Maduramicin NH4], for which the Emax (Zaire ebolavirus, Vero) came to 45.2%.

On to `CNc1ccc2oc(C[C@H]3O[C@@]4(CC[C@H]3C)O[C@H]([C@H](C)C(=O)c3ccc[nH]3)[C@H](C)C[C@H]4C)nc2c1C(=O)O` [Calcimycin A23187], for which the “Max Effect” value is 0.789. In addition, the pIC50 (read-out: IC50) was 5.96.

For `NC(=O)c1cn([C@@H]2O[C@H](CO)[C@@H](O)[C@H]2O)c2ncnc(N)c12` [Sangivamycin Hydrate], under “Zaire ebolavirus, Vero”, the pIC50 is above 6.70 and the Emax came to 90%.

Turning to `COC(=O)Nc1nc2ccc(C(=O)c3cccs3)cc2[nH]1` [Nocodazole], for the setting “Zaire ebolavirus, Vero”, the pIC50 was 6.30 and the Emax amounted to 80%.

On to `C[C@@H]1C[C@@H]([C@H](O)CC2CC(=O)NC(=O)C2)C(=O)[C@@H](C)C1` [Cycloheximide], for which, for the setting “Zaire ebolavirus, Vero”, the pIC50 is above 5.80 and the Emax came to 90%.

Turning to `CCOC(=O)N1CCC(=C2c3ccc(Cl)cc3CCc3cccnc32)CC1` [Loratadine], the Emax (Zaire ebolavirus, Vero) is 37.1%.

`O=C([O-])CN(CCN(CC(=O)[O-])CC(=O)[O-])CC(=O)[O-].[Ca+2].[Na+].[Na+]` [Edetate Calcium Disodium]: under “Zaire ebolavirus, Vero”, the pIC50 is 5.18 and the Emax was determined as 84.1%.

Consider `COc1c(C)c2c(c(O)c1C/C=C(\C)CCC(=O)O)C(=O)OC2` [Mycophenolic Acid], for which, where the note is “Zaire ebolavirus, Vero”, the negative logarithm of the IC50 (pIC50) is above 6.00 and the Emax worked out at 80%.

With `CCOc1ccc(/C=C2\NCCc3cc(OCC)c(OCC)cc32)cc1OCC` [Drotaverine Hydrochloride], the Emax (Zaire ebolavirus, Vero) worked out at 36.7%.

`CCCN1C[C@H](CSC)C[C@@H]2c3cccc4[nH]cc(c34)C[C@H]21` [Pergolide Mesylate]: the Emax (Zaire ebolavirus, Vero) was 38.3%.

For `N=C(N)c1ccc(OCCCCCOc2ccc(C(=N)N)cc2)cc1` [Pentamidine], under “Zaire ebolavirus, Vero”, the pIC50 was 4.98 and the Emax was 42.2%.

Regarding `CC[C@H]1/C=C/C=C/C[C@@H](C)[C@H](O)[C@@](C)(O)C(=O)[C@@H](C)[C@H](O)[C@@H](C)C(=O)[C@@H](C)[C@H](O)[C@@H](C)/C=C/C(=O)O[C@@H]2[C@H](C)[C@H](CC1)O[C@]1(CC[C@H](C)[C@H](C[C@@H](C)O)O1)[C@H]2C` [Oligomycin], where the note is “Zaire ebolavirus, Vero”, the Emax turned out to be 42.6%.

Turning to Gramicidin, the “Max Effect” value is on record as 0.678.

For `COc1cc(C=C2CCCC(=Cc3ccc(O)c(OC)c3)C2=O)ccc1O` [2,6-Divanillylidenecyclohexanone], where the note is “Zaire ebolavirus, Vero”, the pIC50 was 5.19 and the Emax turned out to be 93.2%.

With `Nc1nc2ccc(Cl)cc2c2nc(-c3ccco3)nn12` [CGS 15943], for the setting “Zaire ebolavirus, Vero”, the Emax is 44.9%.
